Test results: ChEMBL document CHEMBL2203081 (Bioorg Med Chem Lett, 2012)
Activity calls are given as the source filed them.

What was measured:
[1] = molecular target: Leucine-rich repeat serine/threonine-protein kinase 2 (Homo sapiens) (UniProt Q5S007); conditions: 0.03 to 3 uM
Description: Inhibition of LRRK2 in human lymphoblastoid cells assessed as inhibition of Ser935 autophosphorylation at 0.03 to 3 uM after 90 mins by immunoblot method

[2] = molecular target: Leucine-rich repeat serine/threonine-protein kinase 2 (Homo sapiens) (UniProt Q5S007); conditions: HEK293, 0.03 to 3 uM
Description: Inhibition of GFP-tagged LRRK2 expressed in HEK293 cells assessed as inhibition of Ser910 autophosphorylation at 0.03 to 3 uM after 90 mins by immunoblotting method

[3] = molecular target: Leucine-rich repeat serine/threonine-protein kinase 2 (Homo sapiens) (UniProt Q5S007); conditions: 0.03 to 3 uM; remark: listed apart in the source
Description: Inhibition of LRRK2 in human lymphoblastoid cells assessed as inhibition of Ser910 autophosphorylation at 0.03 to 3 uM after 90 mins by immunoblot method

[4] = molecular target: Leucine-rich repeat serine/threonine-protein kinase 2 (Homo sapiens) (UniProt Q5S007); conditions: HEK293, 0.03 to 3 uM; remark: listed apart in the source
Description: Inhibition of GFP-tagged LRRK2 expressed in HEK293 cells assessed as inhibition of Ser935 autophosphorylation at 0.03 to 3 uM after 90 mins by immunoblotting method

Measured: inhibition

Sequence of Leucine-rich repeat serine/threonine-protein kinase 2 (Homo sapiens) (Q5S007 whole entry): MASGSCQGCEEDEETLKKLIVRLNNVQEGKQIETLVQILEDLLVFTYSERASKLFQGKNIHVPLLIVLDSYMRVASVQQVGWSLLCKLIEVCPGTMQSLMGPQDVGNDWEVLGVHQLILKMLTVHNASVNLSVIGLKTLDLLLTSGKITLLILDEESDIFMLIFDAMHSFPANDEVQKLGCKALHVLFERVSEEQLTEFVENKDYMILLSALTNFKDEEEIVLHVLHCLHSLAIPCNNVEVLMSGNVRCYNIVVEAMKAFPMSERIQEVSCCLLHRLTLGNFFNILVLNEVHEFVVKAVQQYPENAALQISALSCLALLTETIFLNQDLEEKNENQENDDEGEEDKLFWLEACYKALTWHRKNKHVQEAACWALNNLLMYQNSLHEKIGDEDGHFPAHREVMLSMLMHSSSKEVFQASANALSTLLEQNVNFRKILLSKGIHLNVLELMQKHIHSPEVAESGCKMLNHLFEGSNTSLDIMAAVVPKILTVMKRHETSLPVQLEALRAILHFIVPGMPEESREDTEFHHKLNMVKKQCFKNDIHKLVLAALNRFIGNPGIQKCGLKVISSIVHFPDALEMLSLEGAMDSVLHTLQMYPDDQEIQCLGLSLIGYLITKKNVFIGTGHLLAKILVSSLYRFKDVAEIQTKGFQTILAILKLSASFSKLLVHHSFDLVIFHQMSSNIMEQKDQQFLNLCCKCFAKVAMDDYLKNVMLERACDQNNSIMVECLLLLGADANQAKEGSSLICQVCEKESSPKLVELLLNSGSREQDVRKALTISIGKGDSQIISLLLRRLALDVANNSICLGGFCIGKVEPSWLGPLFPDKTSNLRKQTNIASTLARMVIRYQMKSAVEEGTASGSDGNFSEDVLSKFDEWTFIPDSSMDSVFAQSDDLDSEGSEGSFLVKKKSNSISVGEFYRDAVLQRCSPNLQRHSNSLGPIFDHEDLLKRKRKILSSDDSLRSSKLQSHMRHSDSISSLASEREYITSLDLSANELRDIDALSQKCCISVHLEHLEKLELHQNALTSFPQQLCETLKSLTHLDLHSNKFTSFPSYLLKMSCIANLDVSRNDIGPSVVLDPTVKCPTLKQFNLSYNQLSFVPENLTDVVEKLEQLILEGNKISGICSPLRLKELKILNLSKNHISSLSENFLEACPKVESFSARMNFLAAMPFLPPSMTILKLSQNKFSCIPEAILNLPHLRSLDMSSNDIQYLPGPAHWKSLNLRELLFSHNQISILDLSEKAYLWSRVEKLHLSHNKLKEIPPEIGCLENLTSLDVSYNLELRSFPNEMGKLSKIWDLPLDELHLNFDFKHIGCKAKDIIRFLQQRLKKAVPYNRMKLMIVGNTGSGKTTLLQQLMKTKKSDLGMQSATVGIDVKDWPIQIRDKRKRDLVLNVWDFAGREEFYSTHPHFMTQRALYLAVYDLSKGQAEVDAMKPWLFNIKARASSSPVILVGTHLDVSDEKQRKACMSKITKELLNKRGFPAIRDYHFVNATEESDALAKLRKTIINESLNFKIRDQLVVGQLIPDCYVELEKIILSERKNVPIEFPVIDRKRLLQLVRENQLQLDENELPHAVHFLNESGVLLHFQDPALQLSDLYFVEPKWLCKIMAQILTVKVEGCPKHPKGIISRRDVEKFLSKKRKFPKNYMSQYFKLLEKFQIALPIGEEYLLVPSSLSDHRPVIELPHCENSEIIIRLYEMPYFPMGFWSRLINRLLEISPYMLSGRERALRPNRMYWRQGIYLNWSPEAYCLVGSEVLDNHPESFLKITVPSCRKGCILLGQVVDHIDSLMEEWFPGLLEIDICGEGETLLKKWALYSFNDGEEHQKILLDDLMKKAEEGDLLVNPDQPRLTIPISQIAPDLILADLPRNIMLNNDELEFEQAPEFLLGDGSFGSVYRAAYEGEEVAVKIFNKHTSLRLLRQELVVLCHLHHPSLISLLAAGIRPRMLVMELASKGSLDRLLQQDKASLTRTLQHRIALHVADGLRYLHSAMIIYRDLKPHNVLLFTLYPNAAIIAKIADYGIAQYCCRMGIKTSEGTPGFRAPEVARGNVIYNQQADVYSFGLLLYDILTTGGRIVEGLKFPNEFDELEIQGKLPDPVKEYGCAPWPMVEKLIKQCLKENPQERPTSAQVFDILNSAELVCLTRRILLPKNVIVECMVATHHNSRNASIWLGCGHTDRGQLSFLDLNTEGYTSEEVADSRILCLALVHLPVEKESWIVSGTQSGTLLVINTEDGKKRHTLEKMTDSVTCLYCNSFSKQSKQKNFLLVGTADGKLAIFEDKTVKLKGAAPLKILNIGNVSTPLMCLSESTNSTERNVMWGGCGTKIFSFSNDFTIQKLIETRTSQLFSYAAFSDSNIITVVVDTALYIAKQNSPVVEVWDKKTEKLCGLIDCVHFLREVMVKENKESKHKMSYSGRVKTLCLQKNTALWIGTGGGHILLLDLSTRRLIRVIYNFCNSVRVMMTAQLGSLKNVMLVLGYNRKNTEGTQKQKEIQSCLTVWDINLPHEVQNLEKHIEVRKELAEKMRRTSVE

COc1cc(C(=O)N2CCC(N3CCN(C)CC3)CC2)ccc1Nc1ncc2c(n1)N(C)c1ccccc1C(=O)N2C
active: all assays above
